Values after ≈ are worked out from the molar mass of the structure shown. Read-outs that look alike come from different tables or passages of the source. Marks after values point to notes of the source that are not given here.
How the values were obtained:
[1] = system: S. Typhimurium membrane permeability; assay: Crystal violet uptake assay; type: cell-based, Salmonella enterica subsp. enterica serotype Typhimurium; conditions: 1 hr, lethal dose (5X MBC); for Reduction of crystal violet uptake: compared to 1% DMSO control
Procedure: Figure S2. Estimation of the membrane permeability of Salmonella enterica subsp. enterica serotype Typhimurium strain JSG626 after small molecule (SM) treatment. (A) Crystal […]
Treatments were normalized based on 10 μg/ml of crystal violet solution (no uptake […]
different than the 1% DMSO control (P<0.01); n= 9. (B) Loss of 260 nm absorbing materials from S. Typhimurium cell content. 260 nm absorbing materials were measured […]
standard deviation; *: the amount of 260 nm absorbing material in supernatant was […]
Both experiments were performed as previously described (1).
(also on this page, place not known: updtae (%) (ng/µl) Crystal violet 260 nm absorbing material) […]

[2] = system: Kan^R S. Typhimurium in layer chickens; type: in vivo, chicken; conditions: for Ceca positive for S. Typhimurium after enrichment / Livers positive for S. Typhimurium after enrichment / Spleens positive for S. Typhimurium after enrichment: n = 10 chickens per group; for Reduction of Salmonella in the ceca: compared to the DMSO group
Salmonella Javiana = assay: Dose-response assay (MBC) on Salmonella serovars; type: cell-based, Salmonella enterica
Salmonella Heidelberg = assay: Dose-response assay (MBC) on Salmonella serovars; type: cell-based; conditions: Salmonella enterica; serovar Heidelberg, M9 broth
[3] = system: S. Typhimurium in THP-1 cells; assay: S. Typhimurium survival in infected cell lines; type: cell-based, Salmonella enterica subsp. enterica serotype Typhimurium; conditions: Salmonella enterica, internalized S. Typhimurium, 24 hrs; for IC50: estimated
Procedure: (§1) The ability of four SMs to clear S. Typhimurium was evaluated using three cell lines (Caco-2 cells, HD11, and THP-1 cells) as previously described. A multiplicity of infection (MOI) of 10 was used. Infected cells were treated with 1 µl of SMs (final concentration ranged between 100 µM and 6.25 µM) and incubated at 37 °C for 24 hrs in humidified, 5% CO2 incubator. Following incubation, cells were washed once with 1X PBS, lysed with 0.1% Triton-100X, serial ten-fold diluted in 1X PBS, and plated on agar plate. Plates were incubated at 37 °C for 24 hrs to determine the intracellular bacteria. Cells not infected and not treated, and cells infected and treated with 2% DMSO were used as controls.

[4] = system: S. Typhimurium in HD11 cells; assay: S. Typhimurium survival in infected cell lines; type: cell-based, Salmonella enterica subsp. enterica serotype Typhimurium; conditions: Salmonella enterica, internalized S. Typhimurium, 24 hrs; for IC50: estimated
Procedure: as §1

[5] = system: S. Typhimurium in Caco-2 cells; assay: S. Typhimurium survival in infected cell lines; type: cell-based, Salmonella enterica subsp. enterica serotype Typhimurium; conditions: Salmonella enterica, internalized S. Typhimurium, 24 hrs; for IC50: estimated
Procedure: as §1

[6] = system: S. Typhimurium cell membrane; assay: Confocal microscopy, FM4-64 and SYTO9 staining; type: cell-based, Salmonella enterica subsp. enterica serovar Typhimurium; conditions: 5X MBC for 3 hrs, compared to DMSO control
Procedure: An overnight suspension of S. […] The effect of the SMs on S. Typhimurium was assessed using confocal microscopy as previously described. Cells were stained for 45 min using FM4–64 (2 µg/ml; […] Invitrogen). Three microliters of stained bacteria were transferred onto agarose (1.2%) -coated glass slides. Microscopy was performed using a Leica TCS SP6 confocal scanning microscope with FM4–64 (515 nm/640 nm) and SYTO-9 (485 nm/498 nm) filters.

Salmonella Saint-Paul = assay: Dose-response assay (MBC) on Salmonella serovars; type: cell-based, Salmonella enterica; conditions: serovar Saint-Paul, M9 broth
Salmonella Enteritidis = assay: Dose-response assay (MBC) on Salmonella serovars; type: cell-based; conditions: Salmonella enterica; serovar Enteritidis, M9 broth
chicken red blood cells = assay: Hemolytic activity; type: cell-based; conditions: chicken RBCs, 200 µM, 1 hr
Procedure: (§2) Briefly, 200 µl of 10% sheep or chicken RBC suspension was incubated with 1 µl of SMs (200 µM) for 1 hr at 37 °C in a 96-well plate. After incubation, the plate was centrifuged at 3700 X g for 5 min at 4 °C and then placed on ice for five min. One hundred microliters of the supernatant were transferred into a fresh 96-well plate, and the OD was measured at 540 nm. One percent DMSO and 0.1% Triton-100X were used as negative and positive controls, respectively. Percentage hemolysis was calculated as: [(OD540 SM − OD540 DMSO)/(OD540 1X triton − OD540 PBS)] × 100.

sheep red blood cells = assay: Hemolytic activity; type: cell-based; conditions: sheep RBCs, 200 µM, 1 hr
Procedure: as §2

[7] = system: S. Typhimurium LT2 wild-type (WT) strain; assay: Dose-response assay (MIC and MBC determination) in M9 broth; type: cell-based, Salmonella enterica subsp. enterica serovar Typhimurium; conditions: 12 hrs at 37 °C, read-out: MBC (minimal bactericidal concentration)
Procedure: Typhimurium using high-throughput screening assay in a 96-well plate format. […] Plates were incubated in a Sunrise Tecan kinetic microplate reader for 12 hrs at 37 °C and the optical density (OD) was measured at 600 nm. The percentage of growth inhibition was calculated as: […]. Cultures from wells showing no turbidimetric increase were transferred onto a XLT4 agar plate. Plates were incubated at 37 °C for 36 hrs. […] S. Typhimurium was challenged with a determined concentration of SM as described in the primary screen.

S. Typhimurium = type: cell-based, Salmonella enterica subsp. enterica serovar Typhimurium; conditions: lethal dose (2X MBC) on solid medium or repeated exposure to sub-lethal dose (0.75X MBC) in liquid medium
[8] = system: Salmonella enterica subsp. enterica serotype Typhimurium; assay: Checkerboard assay, SM and antibiotic combinations; type: cell-based; conditions: for MBC: Salmonella enterica, TYPHIMURIUM, SM alone, read-out: SM MBCalone; for Reduction of cefeprime MBC / Reduction of meropenem MBC: sub-lethal concentration of SM
Procedure: The potentiation effect of several antibiotics, commonly used to control Salmonella, was studied in a checkerboard assay. […] The MBC of each antibiotic was determined in M9 medium prior the experiment using a dose-response assay, as described above. For potentiation studies, 100 μl of a S. […] The MBC of each antibiotic was determined as described in the dose-response assay. Bacteria challenged with SMs or antibiotics alone at the same concentrations were used to determine the antibiotic-SM combination effects. […] Further, the bacterial suspension was plated on an agar medium and incubated at 37 °C for 36 hrs. The antibiotic-SM combination effect was calculated based on the determination of the fractional bactericidal concentration (FBC) as previously described[66],[67].

Salmonella Newport = assay: Dose-response assay (MBC) on Salmonella serovars; type: cell-based; conditions: Salmonella enterica; serovar Newport, M9 broth
[9] = compared to the DMSO-treated group
[10] = SM combined with nalidixic acid

SMILES	Ceca positive for S. Typhimurium after enrichment [2]	Livers positive for S. Typhimurium after enrichment [2]	Spleens positive for S. Typhimurium after enrichment [2]	MBC (Salmonella Javiana)	MBC (Salmonella Heidelberg)	MBC [3]	IC50 [3]	MBC [4]	IC50 [4]	MBC [5]	IC50 [5]	Membrane phenotype, FM4–64 staining [6]	MBC (Salmonella Saint-Paul)	MBC (Salmonella Enteritidis)	Hemolytic activity (chicken red blood cells)	Hemolytic activity (sheep red blood cells)	MBC ([7]; Salmonella enterica)	Resistance development of S. Typhimurium (S. Typhimurium)	SM MBCcombined ([8]; SM combined with cefotaxime)	SM MBCcombined ([8]; SM combined with erythromycin)	also measured
CCOc1cc(/C=N/N=C(N)N)ccc1OCc1ccc(Cl)cc1 [SM5]	70%	40%	30%	50 µM (≈ 17.3 µg/mL)	50 µM (≈ 17.3 µg/mL)	50 µM (≈ 17.3 µg/mL)	< 25 µM	25 µM (≈ 8.67 µg/mL)	< 12.5 µM	12.5 µM (≈ 4.34 µg/mL)	6.25 to 12.5 µM	a bright red spot was detected within every bacterium	50 µM (≈ 17.3 µg/mL)	50 µM (≈ 17.3 µg/mL)	lower than 1%	lower than 1%	25 µM (≈ 8.67 µg/mL)	no resistance was observed	25^c μM	25^c μM	Increase in permeability (crystal violet uptake) ([1]; compared to 1% DMSO-treated cells): 2.32 fold; Reduction in Salmonella population inside the ceca ([2]; 200 µg of SM per day, oral, five days): approximately 2.8 log; Reduction of cecal colonization by Salmonella [2, 9]: 30%; Reduction of spleen colonization by Salmonella [2, 9]: 25%; MBC [7]: 25 µM (≈ 8.67 µg/mL); SM MBCcombined ([8]; SM combined with cefeprime): 25^c μM; SM MBCcombined ([8]; SM combined with ciprofloxacin at the concentration in the cell before): 20^b μM; SM MBCcombined ([8]; SM combined with meropenem): 25^c μM; SM MBCcombined [8, 10]: 25^c μM; MBC [8]: 25 µM; MBC (Salmonella Newport): 50 µM (≈ 17.3 µg/mL)
CC1CCC(C(C)C)C(OC(=O)Cn2c[n+](CC(=O)OC3CC(C)CCC3C(C)C)c3ccccc32)C1 (stereo not shown) [SM1]	90%	40%	50%	100 µM	100 µM	100 µM	< 50 µM	6.25 µM	< 3.21 µM	25 µM	12.5 to 25 µM	No signal was detected	100 µM	100 µM	> 50%	> 50%	50 µM	no resistance was observed	50 µM	50 µM	Reduction of crystal violet uptake [1]: 1.88 fold; Reduction of Salmonella in the ceca [2]: did not show any reduction; MBC [8]: 50 µM; Reduction of cefeprime MBC [8]: at least 5 fold; Reduction of meropenem MBC [8]: 5 fold; MBC (Salmonella Newport): 100 µM
CCCCCCCCCCCCCCCC[n+]1ccn(CC#N)c1 [SM3]	80%	60%	50%	25 µM	50 µM	50 µM	25 to 50 µM	50 µM	< 25 µM	50 µM	12.5 to 25 µM	No signal was detected	50 µM	25 µM	below 49%	below 18%	25 µM	no resistance was observed	25^c μM	25^c μM	Reduction of crystal violet uptake [1]: 4.46 fold; Reduction of Salmonella in the ceca [2]: did not show any reduction; MBC [7]: 25 µM; SM MBCcombined [8, 10]: 25^c μM; MBC [8]: 25 µM; Reduction of cefeprime MBC [8]: at least 5 fold; Reduction of meropenem MBC [8]: 2.5 fold; MBC (Salmonella Newport): 50 µM
